Test results as given in ChEMBL document CHEMBL1201862, “PubChem BioAssay data set” (2004).
Values belong to the molecule of their own block, whether it stands above or below them. Activity calls are given as the source filed them.

Assays:
Assay type in all cases: functional
Caspase-3 = molecular target: T1, Caspase-3 (Homo sapiens, UniProt P42574);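 also: Dose-response selectivity test against caspase-3 for candidate inhibitors of sentrin-specific proteases (SENPs)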
T1 sequence (P42574 whole entry): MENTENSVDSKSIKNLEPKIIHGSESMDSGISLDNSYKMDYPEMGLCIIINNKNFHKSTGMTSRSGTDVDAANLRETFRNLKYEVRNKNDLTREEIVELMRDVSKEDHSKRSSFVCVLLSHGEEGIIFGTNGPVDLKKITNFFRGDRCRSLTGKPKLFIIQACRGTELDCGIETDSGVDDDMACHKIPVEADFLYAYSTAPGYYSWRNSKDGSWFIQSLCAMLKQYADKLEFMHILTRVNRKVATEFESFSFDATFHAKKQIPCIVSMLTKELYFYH

[1] = molecular target: T2, Apoptotic protease-activating factor 1 (Homo sapiens, UniProt O14727)
T2 sequence (O14727 whole entry): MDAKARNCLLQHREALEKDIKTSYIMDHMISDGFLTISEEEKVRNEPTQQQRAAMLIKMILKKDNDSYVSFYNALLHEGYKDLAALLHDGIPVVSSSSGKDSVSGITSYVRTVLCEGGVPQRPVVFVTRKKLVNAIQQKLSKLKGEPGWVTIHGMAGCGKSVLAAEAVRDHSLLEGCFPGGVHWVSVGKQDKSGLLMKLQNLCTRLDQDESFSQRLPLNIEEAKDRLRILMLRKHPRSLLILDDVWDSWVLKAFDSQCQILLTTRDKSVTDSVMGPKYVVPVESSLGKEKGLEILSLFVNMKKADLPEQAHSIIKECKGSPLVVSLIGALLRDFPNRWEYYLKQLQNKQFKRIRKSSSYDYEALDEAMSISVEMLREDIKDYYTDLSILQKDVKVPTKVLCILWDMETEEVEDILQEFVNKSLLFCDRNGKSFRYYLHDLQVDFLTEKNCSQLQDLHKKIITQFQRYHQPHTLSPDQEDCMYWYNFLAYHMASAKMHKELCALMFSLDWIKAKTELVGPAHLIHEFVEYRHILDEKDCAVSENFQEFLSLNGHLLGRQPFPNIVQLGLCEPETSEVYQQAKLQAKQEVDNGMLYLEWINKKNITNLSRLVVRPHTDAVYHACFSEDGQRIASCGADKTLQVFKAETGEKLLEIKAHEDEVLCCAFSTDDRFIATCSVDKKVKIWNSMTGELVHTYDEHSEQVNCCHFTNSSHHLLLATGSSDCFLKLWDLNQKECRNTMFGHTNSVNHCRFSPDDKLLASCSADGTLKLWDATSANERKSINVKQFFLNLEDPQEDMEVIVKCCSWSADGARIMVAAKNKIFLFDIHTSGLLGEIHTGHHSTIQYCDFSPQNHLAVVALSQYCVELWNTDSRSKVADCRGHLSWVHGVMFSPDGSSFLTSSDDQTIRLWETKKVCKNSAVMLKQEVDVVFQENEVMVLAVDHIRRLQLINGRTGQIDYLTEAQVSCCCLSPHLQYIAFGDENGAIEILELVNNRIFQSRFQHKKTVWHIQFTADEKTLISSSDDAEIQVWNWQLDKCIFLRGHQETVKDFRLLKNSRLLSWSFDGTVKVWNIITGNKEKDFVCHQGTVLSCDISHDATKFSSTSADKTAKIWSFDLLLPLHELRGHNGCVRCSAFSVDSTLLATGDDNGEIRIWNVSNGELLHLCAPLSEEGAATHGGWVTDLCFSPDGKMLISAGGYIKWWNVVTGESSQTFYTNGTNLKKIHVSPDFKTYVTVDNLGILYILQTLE

[2] = molecular target: Proto-oncogene tyrosine-protein kinase receptor Ret (Homo sapiens, UniProt P07949);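 also: measured within a kinome-wide profiling panel, RET as the panel member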
Activated CDC42 kinase 1 = Activated CDC42 kinase 1 (Homo sapiens, UniProt Q07912); test: Navigating the Kinome. Panel member name: ACK1
[3] = molecular target: Dual specificity tyrosine-phosphorylation-regulated kinase 3 (Homo sapiens, UniProt O43781);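 also: measured as one member of a broad kinase panel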
[4] = molecular target: Testis-specific serine/threonine-protein kinase 2 (Homo sapiens, UniProt Q96PF2);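 also: part of the Navigating the Kinome panel, target entry STK22B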
[5] = molecular target: Calcium/calmodulin-dependent protein kinase type II subunit beta (Homo sapiens, UniProt Q13554)
[6] = molecular target: Mitogen-activated protein kinase 13 (Homo sapiens, UniProt O15264)
[7] = molecular target: Mitogen-activated protein kinase kinase kinase kinase 5 (Homo sapiens, UniProt Q9Y4K4);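 also: measured as one member of a kinome-spanning kinase panel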
[8] = molecular target: Serine/threonine-protein kinase 3 (Homo sapiens, UniProt Q13188);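 also: measured as one member of a kinome-wide kinase panel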
[9] = molecular target: Serine/threonine-protein kinase D2 (Homo sapiens, UniProt Q9BZL6);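 also: measured against PRKD2 as one member of a kinome-wide kinase profiling panel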
[10] = molecular target: MAP/microtubule affinity-regulating kinase 3 (Homo sapiens, UniProt P27448);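 also: MARK3 affinity measured as one member of a kinome panel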
[11] = molecular target: Lymphokine-activated killer T-cell-originated protein kinase (Homo sapiens, UniProt Q96KB5);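 also: value comes from a kinase panel screen in which TOPK was one of the panel members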
[12] = molecular target: Tyrosine-protein kinase ITK/TSK (Homo sapiens, UniProt Q08881);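 also: affinity for ITK measured as one member of a broad kinase panel profiling binding across the kinome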
[13] = molecular target: Calcium/calmodulin-dependent protein kinase type II subunit delta (Homo sapiens, UniProt Q13557)
[14] = molecular target: Serine/threonine-protein kinase PLK3 (Homo sapiens, UniProt Q9H4B4)
[15] = molecular target: Tyrosine-protein kinase FRK (Homo sapiens, UniProt P42685);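 also: FRK tested as one member of a kinome panel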
[16] = molecular target: Tyrosine-protein kinase Lyn (Homo sapiens, UniProt P07948);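 also: lyn as one member of a kinase panel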
[17] = molecular target: Tyrosine-protein kinase Blk (Homo sapiens, UniProt P51451);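 also: obtained as one member of a kinome-wide kinase assay panel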
Sequence of Tyrosine-protein kinase Blk (P51451 whole entry): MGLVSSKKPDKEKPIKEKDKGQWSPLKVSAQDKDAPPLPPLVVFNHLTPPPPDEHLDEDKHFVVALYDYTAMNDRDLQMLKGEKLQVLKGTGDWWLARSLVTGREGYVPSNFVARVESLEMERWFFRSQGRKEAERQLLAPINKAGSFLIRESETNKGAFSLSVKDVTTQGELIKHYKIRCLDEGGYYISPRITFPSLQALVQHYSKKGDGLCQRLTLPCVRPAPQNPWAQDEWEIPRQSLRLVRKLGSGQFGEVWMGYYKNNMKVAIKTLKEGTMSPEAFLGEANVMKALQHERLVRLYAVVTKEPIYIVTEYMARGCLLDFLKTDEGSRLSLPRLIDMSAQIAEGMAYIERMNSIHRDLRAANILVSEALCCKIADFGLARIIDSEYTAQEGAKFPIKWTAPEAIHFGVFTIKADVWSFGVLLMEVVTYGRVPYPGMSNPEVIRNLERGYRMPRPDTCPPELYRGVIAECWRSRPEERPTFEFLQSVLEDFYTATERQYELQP

Sequence of Tyrosine-protein kinase FRK (P42685 whole entry): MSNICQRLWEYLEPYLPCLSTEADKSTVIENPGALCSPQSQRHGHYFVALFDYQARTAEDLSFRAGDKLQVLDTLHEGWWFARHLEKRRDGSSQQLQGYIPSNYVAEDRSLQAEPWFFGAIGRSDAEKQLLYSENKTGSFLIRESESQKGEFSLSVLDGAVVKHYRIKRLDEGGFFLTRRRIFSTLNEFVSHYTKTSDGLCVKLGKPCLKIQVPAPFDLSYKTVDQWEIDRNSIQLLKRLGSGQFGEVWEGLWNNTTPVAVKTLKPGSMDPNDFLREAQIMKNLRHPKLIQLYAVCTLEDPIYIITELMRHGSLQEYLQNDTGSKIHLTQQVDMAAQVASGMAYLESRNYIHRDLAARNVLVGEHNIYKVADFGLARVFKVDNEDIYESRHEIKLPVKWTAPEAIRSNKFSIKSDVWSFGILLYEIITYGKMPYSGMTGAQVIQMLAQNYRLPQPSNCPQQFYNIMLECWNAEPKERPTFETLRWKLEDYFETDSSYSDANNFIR
Sequence of Testis-specific serine/threonine-protein kinase 2 (Q96PF2 whole entry): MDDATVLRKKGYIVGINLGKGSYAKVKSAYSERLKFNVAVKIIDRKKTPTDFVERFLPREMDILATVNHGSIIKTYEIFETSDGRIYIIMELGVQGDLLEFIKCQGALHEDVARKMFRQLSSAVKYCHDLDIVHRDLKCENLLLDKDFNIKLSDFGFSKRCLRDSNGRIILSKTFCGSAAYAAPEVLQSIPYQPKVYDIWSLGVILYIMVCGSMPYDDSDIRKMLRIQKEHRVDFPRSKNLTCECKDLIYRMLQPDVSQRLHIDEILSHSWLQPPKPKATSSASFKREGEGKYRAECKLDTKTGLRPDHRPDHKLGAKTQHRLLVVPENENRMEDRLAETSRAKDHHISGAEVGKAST
Sequence of Activated CDC42 kinase 1 (Q07912 whole entry): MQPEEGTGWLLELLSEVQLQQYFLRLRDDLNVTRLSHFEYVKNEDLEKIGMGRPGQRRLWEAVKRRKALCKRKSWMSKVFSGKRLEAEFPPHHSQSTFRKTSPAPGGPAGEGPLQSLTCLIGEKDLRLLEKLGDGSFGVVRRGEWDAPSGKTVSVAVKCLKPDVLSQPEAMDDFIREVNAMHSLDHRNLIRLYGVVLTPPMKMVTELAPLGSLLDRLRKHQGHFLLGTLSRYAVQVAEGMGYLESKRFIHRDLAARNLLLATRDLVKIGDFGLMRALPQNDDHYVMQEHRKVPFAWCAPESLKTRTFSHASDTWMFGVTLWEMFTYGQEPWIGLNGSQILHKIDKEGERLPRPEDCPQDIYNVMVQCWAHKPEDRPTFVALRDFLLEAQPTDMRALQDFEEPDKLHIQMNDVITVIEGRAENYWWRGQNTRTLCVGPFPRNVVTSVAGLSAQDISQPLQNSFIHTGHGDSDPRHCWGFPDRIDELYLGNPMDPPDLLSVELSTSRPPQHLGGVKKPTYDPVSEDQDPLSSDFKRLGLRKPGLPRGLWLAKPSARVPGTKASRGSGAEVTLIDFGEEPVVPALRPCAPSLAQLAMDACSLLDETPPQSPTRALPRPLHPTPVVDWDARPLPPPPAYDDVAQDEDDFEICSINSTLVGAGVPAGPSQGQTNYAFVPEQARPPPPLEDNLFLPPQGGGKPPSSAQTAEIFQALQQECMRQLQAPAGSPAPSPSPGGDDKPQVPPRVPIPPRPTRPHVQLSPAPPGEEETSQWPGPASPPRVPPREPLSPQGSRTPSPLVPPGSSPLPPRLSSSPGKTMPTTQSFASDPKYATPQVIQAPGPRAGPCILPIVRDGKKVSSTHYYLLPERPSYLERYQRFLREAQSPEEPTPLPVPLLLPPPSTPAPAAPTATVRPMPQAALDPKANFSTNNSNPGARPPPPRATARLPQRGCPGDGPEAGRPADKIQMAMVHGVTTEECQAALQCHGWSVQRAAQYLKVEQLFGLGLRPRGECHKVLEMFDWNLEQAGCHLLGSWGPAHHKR
Sequence of MAP/microtubule affinity-regulating kinase 3 (P27448 whole entry): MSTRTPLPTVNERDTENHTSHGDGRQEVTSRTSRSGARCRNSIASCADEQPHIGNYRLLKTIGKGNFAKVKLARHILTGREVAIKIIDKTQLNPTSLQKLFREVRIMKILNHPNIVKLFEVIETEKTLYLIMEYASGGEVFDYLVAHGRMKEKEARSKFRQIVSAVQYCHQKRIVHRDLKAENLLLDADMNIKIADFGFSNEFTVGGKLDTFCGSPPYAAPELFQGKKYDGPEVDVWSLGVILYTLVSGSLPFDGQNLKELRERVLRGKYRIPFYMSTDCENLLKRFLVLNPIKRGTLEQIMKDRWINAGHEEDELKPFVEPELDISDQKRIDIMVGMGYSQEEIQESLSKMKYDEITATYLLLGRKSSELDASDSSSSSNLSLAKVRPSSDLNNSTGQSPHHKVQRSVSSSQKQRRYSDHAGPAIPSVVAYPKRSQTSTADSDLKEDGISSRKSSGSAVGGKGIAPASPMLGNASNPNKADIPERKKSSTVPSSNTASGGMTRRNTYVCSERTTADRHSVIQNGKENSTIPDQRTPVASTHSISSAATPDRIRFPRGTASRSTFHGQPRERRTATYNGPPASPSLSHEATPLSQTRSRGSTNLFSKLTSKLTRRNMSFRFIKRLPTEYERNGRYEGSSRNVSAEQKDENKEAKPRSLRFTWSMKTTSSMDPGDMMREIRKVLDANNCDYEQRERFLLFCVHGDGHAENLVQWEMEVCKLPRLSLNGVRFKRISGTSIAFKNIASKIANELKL
Sequence of Mitogen-activated protein kinase 13 (O15264 whole entry): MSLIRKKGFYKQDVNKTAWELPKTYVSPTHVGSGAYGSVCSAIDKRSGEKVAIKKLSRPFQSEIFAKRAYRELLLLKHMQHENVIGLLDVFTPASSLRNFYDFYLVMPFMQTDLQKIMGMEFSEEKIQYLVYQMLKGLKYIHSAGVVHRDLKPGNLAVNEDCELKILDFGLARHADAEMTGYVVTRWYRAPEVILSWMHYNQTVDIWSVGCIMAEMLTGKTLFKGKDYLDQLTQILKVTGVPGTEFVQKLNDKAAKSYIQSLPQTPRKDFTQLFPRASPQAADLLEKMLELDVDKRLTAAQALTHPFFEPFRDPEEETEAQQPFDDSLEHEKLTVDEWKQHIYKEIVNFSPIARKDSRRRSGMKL
Sequence of Tyrosine-protein kinase Lyn (P07948 whole entry): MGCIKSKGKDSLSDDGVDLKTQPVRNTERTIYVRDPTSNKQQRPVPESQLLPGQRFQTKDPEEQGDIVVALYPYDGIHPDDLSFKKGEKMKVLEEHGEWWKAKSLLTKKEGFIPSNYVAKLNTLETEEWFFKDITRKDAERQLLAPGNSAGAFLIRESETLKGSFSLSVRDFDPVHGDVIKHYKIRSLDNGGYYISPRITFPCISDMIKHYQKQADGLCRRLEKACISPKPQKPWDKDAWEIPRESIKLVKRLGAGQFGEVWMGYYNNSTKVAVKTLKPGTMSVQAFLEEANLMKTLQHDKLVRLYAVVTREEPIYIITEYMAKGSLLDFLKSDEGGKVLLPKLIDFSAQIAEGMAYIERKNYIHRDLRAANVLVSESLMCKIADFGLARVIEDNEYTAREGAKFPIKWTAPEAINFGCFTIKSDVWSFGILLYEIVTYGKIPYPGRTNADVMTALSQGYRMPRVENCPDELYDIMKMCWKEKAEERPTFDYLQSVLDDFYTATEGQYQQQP
Sequence of Dual specificity tyrosine-phosphorylation-regulated kinase 3 (O43781 whole entry): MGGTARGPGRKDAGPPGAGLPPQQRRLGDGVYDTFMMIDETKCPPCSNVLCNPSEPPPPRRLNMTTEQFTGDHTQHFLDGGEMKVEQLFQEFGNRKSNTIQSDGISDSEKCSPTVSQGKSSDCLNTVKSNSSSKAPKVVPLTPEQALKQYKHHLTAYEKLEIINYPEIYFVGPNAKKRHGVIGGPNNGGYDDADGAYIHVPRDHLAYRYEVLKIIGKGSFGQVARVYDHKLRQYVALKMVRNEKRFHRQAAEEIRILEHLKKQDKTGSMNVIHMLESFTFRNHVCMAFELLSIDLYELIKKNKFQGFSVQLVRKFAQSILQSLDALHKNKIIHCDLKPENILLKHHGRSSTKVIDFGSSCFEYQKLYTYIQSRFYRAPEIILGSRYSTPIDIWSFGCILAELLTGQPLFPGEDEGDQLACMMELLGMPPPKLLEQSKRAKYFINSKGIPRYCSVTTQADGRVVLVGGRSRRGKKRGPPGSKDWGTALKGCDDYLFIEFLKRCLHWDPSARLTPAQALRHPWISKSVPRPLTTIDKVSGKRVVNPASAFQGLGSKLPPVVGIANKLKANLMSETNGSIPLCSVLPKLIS
Sequence of Lymphokine-activated killer T-cell-originated protein kinase (Q96KB5 whole entry): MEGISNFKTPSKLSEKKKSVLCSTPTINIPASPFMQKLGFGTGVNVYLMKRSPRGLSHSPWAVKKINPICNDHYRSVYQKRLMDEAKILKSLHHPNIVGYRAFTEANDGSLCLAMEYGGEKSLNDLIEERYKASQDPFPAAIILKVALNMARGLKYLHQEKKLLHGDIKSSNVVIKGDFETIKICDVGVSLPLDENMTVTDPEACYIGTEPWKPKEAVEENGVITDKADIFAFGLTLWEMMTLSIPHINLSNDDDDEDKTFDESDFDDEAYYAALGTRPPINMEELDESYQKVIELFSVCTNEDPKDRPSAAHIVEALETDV

- IC50 (Caspase-3): 26600 nM (active)
- IC50 [1]: 12600 nM (active)
Structure (SMILES): COc1ccc(-n2c(NC(=O)c3ccco3)c(C#N)c3nc4ccccc4nc32)cc1

- Ki [2]: > 3160 nM (inactive)
- Ki (Activated CDC42 kinase 1): > 3980 nM (inactive)
Structure (SMILES): [2H]C([2H])([2H])Oc1cccc(C(C)NC(=O)c2sc(-c3ccncc3)nc2C)c1 (centres undefined)

- Ki [3]: 10 nM (active)
- Ki [4]: > 1580 nM (inactive)
- Ki [5]: 251 nM (active)
- Ki [6]: 631 nM (active)
- Ki [7]: 158 nM (active)
- Ki [8]: 63.1 nM (active)
- Ki [9]: 31.6 nM (active)
- Ki [10]: 316 nM (active)
- Ki [12]: > 1580 nM (inactive)
- Ki [13]: 12.6 nM (active)
- Ki [14]: > 7940 nM (inactive)
- Ki [15]: > 2510 nM (inactive)
- Ki [16]: > 1580 nM (inactive)
- Ki [17]: > 1580 nM (inactive)
Structure (SMILES): Cc1n[nH]c2ccc(-c3cncc(OCC(N)Cc4ccc(Cl)c(Cl)c4)c3)cc12 (centres undefined)
- Ki [11]: 3980 nM (active)
